Patent US10093713B2, “GIP-GLP-1 dual agonist compounds and methods” (priority 2013, dated 2018)
Like-named read-outs stand apart in the source and are kept apart here. *1 amine or outer side, *2 acyl side, *3 side chain or, on linkers, in order; H or OH if unused. Where a SMILES comes first, the peptide text is derived from it. Side-chain parts run from the residue outwards. [ ]: non-standard residue; d: D form. The star is where a group is joined. C20 diacid = O=C(O)CCCCCCCCCCCCCCCCCCC(=O)*; γGlu = O=C(O)[C@H](CCC(=O)[*:2])N[*:1]; AEEA = NCCOCCOCC(=O)O; Aib = CC(C)(N)C(=O)O

Columns and labels:
human GIP R = target: T1, human GIP R (Homo sapiens, UniProt P48546); test: Human GIP receptor (GIP R) activity assay, cAMP induction (AlphaScreen) in HEK293 cells; assay type: cell-based; details: read-out: hGIP-R cAMP EC50 average value
T1 construct: expressed in transfected cells
T1 sequence (P48546 22-466): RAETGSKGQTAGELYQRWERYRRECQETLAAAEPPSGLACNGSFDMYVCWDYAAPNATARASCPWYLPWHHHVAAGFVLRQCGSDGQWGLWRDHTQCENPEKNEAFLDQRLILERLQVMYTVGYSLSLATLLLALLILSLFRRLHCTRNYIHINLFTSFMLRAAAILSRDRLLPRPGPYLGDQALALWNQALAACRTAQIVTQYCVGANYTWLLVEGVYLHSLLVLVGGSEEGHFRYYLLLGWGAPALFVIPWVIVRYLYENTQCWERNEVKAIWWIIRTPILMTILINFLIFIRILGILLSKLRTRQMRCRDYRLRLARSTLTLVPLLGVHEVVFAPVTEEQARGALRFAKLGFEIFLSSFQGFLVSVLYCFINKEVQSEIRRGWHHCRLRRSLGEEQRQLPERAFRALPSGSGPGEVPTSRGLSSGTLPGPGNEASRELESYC
In short: (§1)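 Stable HEK293 clones expressing human GIP R or GLP-1 R, seeded 1 day before; cells washed in Tyrode's buffer (10 mM HEPES, pH 7.4), stimulated, then lysed. cAMP measured by AlphaScreen bead competition (1 h, room temperature, dark). EC50 = concentration giving half-maximal cAMP elevation, from curves of absolute cAMP (nM) vs log concentration.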

[1] = Pharmacokinetics of selected compounds in mice; assay type: in vivo, C57BL/6J mice; details: male, C57BL/6J, mouse, plasma; for bioavailability: subcutaneous, AUCinf (s.c.)/AUCinf (i.v.)x100, values marked * capped to 100%
Method: Pharmacokinetics of Selected Compounds in Mice
C57BL/6J mice (males with a body weight of approximately 25 g) were given either a single subcutaneous (s.c.) bolus or a single intravenous (i.v.) bolus of each peptide to be tested.
Following s.c. administration of the selected compounds (50, 100 or 200 nmol/kg), blood samples were drawn at 8 (eight) timepoints up to 72 hours post-dose. Following i.v. administration of the selected compounds (50, 100 or 200 nmol/kg), blood samples were drawn at 8 (eight) timepoints up to 48 hours post-dose. Blood samples were drawn by sublingual bleeding. The dosing vehicle was a phosphate buffer containing mannitol (pH 7.5).
At each sampling time point, samples from two mice were drawn, i.e. 16 mice were included for each compound and each administration route. The mice were euthanized immediately after blood sampling by cervical dislocation. Plasma samples were analyzed after solid phase extraction (SPE) or protein precipitation followed by liquid chromatography mass spectrometry (LC-MS/MS). Mean plasma concentrations were used for calculation of the pharmacokinetic parameters using the non-compartmental approach in Phoenix WinNonlin 6.3. Plasma terminal elimination half-life (T½) was determined as […] where λz is the magnitude of the slope of the log linear regression of the log concentration versus time profile during the terminal phase. Bioavailability was determined as AUCinf (s.c.)/AUCinf (i.v.)×100, where AUCinf is the area under the plasma concentration−time curve extrapolated to infinity (AUCinf=AUClast+Clast/λz, where Clast is the last observed plasma concentration). Tmax is the post-dose time where the maximal plasma concentration was observed.

human GLP-1 R = target: T2, human GLP-1 R (Homo sapiens, UniProt P43220); test: Human GLP-1 receptor (GLP-1 R) activity assay, cAMP induction (AlphaScreen) in HEK293 cells; assay type: cell-based
T2 construct: expressed in transfected cells
In short: as §1

[2] = Table 2, HEK293 cells expressing human GIP R
[3] = iv, single i.v. bolus, read-out: T½ terminal elimination half-life, i.v. (converted)
[4] = sc, single s.c. bolus, read-out: T½ terminal elimination half-life, s.c. (converted)
[5] = Table 2, HEK293 cells expressing human GLP-1 R, read-out: hGLP1-R cAMP EC50 average value
[6] = Table 3, most comprehensive data, read-out: hGLP-1-R cAMP EC50 average value
[7] = Table 3, most comprehensive data

T2 sequence (P43220 24-463): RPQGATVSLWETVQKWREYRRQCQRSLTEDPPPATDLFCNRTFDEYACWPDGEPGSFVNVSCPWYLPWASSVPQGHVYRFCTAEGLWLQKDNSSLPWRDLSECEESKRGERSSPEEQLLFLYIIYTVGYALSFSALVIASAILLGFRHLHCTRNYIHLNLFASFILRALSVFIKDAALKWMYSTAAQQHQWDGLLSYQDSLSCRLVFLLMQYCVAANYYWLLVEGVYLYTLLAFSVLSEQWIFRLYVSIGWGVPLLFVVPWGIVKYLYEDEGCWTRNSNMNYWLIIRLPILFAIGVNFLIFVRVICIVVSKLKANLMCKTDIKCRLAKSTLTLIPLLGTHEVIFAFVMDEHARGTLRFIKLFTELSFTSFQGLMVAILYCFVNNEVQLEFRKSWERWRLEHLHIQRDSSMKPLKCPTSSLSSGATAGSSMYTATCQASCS

Compound	EC50 (human GIP R; [2])	half-life [1, 3]	bioavailability [1]	Tmax ([1]; sc, single s.c. bolus)	half-life [1, 4]	EC50 (human GLP-1 R; [5])	EC50 (human GLP-1 R; [6])	EC50 (human GIP R; [7])
CC[C@H](C)[C@H](NC(=O)[C@H](CO)NC(=O)[C@H](CC(C)C)NC(=O)[C@H](CC(=O)O)NC(=O)[C@H](CO)NC(=O)[C@@H](NC(=O)[C@H](Cc1ccccc1)NC(=O)[C@@H](NC(=O)CNC(=O)[C@H](CCC(=O)O)NC(=O)C(C)(C)NC(=O)[C@@H](N)Cc1ccc(O)cc1)[C@@H](C)O)[C@@H](C)O)C(=O)N[C@@H](C)C(=O)N[C@@H](CC(C)C)C(=O)N[C@@H](CCC(=O)O)C(=O)N[C@@H](CCCCN)C(=O)N[C@@H](CCCCNC(=O)COCCOCCNC(=O)COCCOCCNC(=O)CC[C@H](NC(=O)CCCCCCCCCCCCCCCCCCC(=O)O)C(=O)O)C(=O)N[C@@H](C)C(=O)N[C@@H](CCC(N)=O)C(=O)N[C@@H](CCCNC(=N)N)C(=O)N[C@@H](C)C(=O)N[C@@H](Cc1ccccc1)C(=O)N[C@H](C(=O)N[C@@H](CCC(=O)O)C(=O)N[C@@H](Cc1c[nH]c2ccccc12)C(=O)N[C@@H](CC(C)C)C(=O)N[C@@H](CC(C)C)C(=O)N[C@@H](C)C(=O)N[C@@H](CCC(N)=O)C(=O)N[C@@H](CCCCN)C(N)=O)C(C)C [Compound 28] (H-Y[Aib]EGTFTSDLSIALEKK([AEEA-AEEA-γGlu-C20 diacid])AQRAFVEWLLAQK-NH2)	0.024 nM	13.6 h	93%	2 h	14.1 h	0.017 nM	0.015 nM	
CC[C@H](C)[C@H](NC(=O)[C@H](CO)NC(=O)[C@H](Cc1ccc(O)cc1)NC(=O)[C@H](CC(=O)O)NC(=O)[C@H](CO)NC(=O)[C@@H](NC(=O)[C@H](Cc1ccccc1)NC(=O)[C@@H](NC(=O)CNC(=O)[C@H](CCC(=O)O)NC(=O)[C@@H](C)NC(=O)[C@@H](N)Cc1ccc(O)cc1)[C@@H](C)O)[C@@H](C)O)C(=O)N[C@@H](Cc1ccc(O)cc1)C(=O)N[C@@H](CC(C)C)C(=O)N[C@@H](CC(=O)O)C(=O)N[C@@H](CCCCN)C(=O)N[C@@H](CCCCNC(=O)COCCOCCNC(=O)COCCOCCNC(=O)CC[C@H](NC(=O)CCCCCCCCCCCCCCCCCCC(=O)O)C(=O)O)C(=O)N[C@@H](C)C(=O)N[C@@H](CCC(N)=O)C(=O)N[C@@H](CCCNC(=N)N)C(=O)N[C@@H](C)C(=O)N[C@@H](Cc1ccccc1)C(=O)N[C@H](C(=O)N[C@@H](CCC(=O)O)C(=O)N[C@@H](Cc1c[nH]c2ccccc12)C(=O)N[C@@H](CC(C)C)C(=O)N[C@@H](CC(C)C)C(=O)N[C@@H](C)C(=O)N[C@@H](CCC(N)=O)C(=O)NCC(=O)N1CCC[C@H]1C(=O)N[C@@H](CO)C(=O)N[C@@H](CO)C(=O)NCC(=O)N[C@@H](C)C(=O)N1CCC[C@H]1C(=O)N1CCC[C@H]1C(=O)N1CCC[C@H]1C(=O)N[C@@H](CO)C(N)=O)C(C)C [Compound 30] (H-Y[dA]EGTFTSDYSIYLDKK([AEEA-AEEA-γGlu-C20 diacid])AQRAFVEWLLAQGPSSGAPPPS-NH2)	0.015 nM	17.1 h	83%	8 h	15.9 h	0.028 nM	0.035 nM	0.017 nM
CC[C@H](C)[C@H](NC(=O)[C@H](CO)NC(=O)[C@H](Cc1ccc(O)cc1)NC(=O)[C@H](CC(=O)O)NC(=O)[C@H](CO)NC(=O)[C@@H](NC(=O)[C@H](Cc1ccccc1)NC(=O)[C@@H](NC(=O)CNC(=O)[C@H](CCC(=O)O)NC(=O)C(C)(C)NC(=O)[C@@H](N)Cc1ccc(O)cc1)[C@@H](C)O)[C@@H](C)O)C(=O)N[C@@H](C)C(=O)N[C@@H](CC(C)C)C(=O)N[C@@H](CCC(=O)O)C(=O)N[C@@H](CCCCN)C(=O)N[C@@H](CCCCNC(=O)COCCOCCNC(=O)COCCOCCNC(=O)CC[C@H](NC(=O)CCCCCCCCCCCCCCCCCCC(=O)O)C(=O)O)C(=O)N[C@@H](C)C(=O)N[C@@H](CCC(N)=O)C(=O)N[C@@H](CCCNC(=N)N)C(=O)N[C@@H](C)C(=O)N[C@@H](Cc1ccccc1)C(=O)N[C@H](C(=O)N[C@@H](CCC(=O)O)C(=O)N[C@@H](Cc1c[nH]c2ccccc12)C(=O)N[C@@H](CC(C)C)C(=O)N[C@@H](CC(C)C)C(=O)N[C@@H](C)C(=O)N[C@@H](CCC(N)=O)C(=O)NCC(=O)N1CCC[C@H]1C(=O)N[C@@H](CO)C(=O)N[C@@H](CO)C(=O)NCC(=O)N[C@@H](C)C(=O)N1CCC[C@H]1C(=O)N1CCC[C@H]1C(=O)N1CCC[C@H]1C(=O)N[C@@H](CO)C(N)=O)C(C)C [Compound 31] (H-Y[Aib]EGTFTSDYSIALEKK([AEEA-AEEA-γGlu-C20 diacid])AQRAFVEWLLAQGPSSGAPPPS-NH2)	0.007 nM	11.7 h	88%	8 h	15.1 h	0.016 nM	0.017 nM	0.008 nM
CC[C@H](C)[C@H](NC(=O)[C@H](CO)NC(=O)[C@H](Cc1ccc(O)cc1)NC(=O)[C@H](CC(=O)O)NC(=O)[C@H](CO)NC(=O)[C@@H](NC(=O)[C@H](Cc1ccccc1)NC(=O)[C@@H](NC(=O)CNC(=O)[C@H](CCC(=O)O)NC(=O)[C@@H](C)NC(=O)[C@@H](N)Cc1ccc(O)cc1)[C@@H](C)O)[C@@H](C)O)C(=O)N[C@@H](C)C(=O)N[C@@H](CC(C)C)C(=O)N[C@@H](CCC(=O)O)C(=O)N[C@@H](CCCCN)C(=O)N[C@@H](CCCCNC(=O)COCCOCCNC(=O)COCCOCCNC(=O)CC[C@H](NC(=O)CCCCCCCCCCCCCCCCCCC(=O)O)C(=O)O)C(=O)N[C@@H](C)C(=O)N[C@@H](CCC(N)=O)C(=O)N[C@@H](CCCNC(=N)N)C(=O)N[C@@H](C)C(=O)N[C@@H](Cc1ccccc1)C(=O)N[C@H](C(=O)N[C@@H](CCC(=O)O)C(=O)N[C@@H](Cc1c[nH]c2ccccc12)C(=O)N[C@@H](CC(C)C)C(=O)N[C@@H](CC(C)C)C(=O)N[C@@H](C)C(=O)N[C@@H](CCC(N)=O)C(=O)NCC(=O)N1CCC[C@H]1C(=O)N[C@@H](CO)C(=O)N[C@@H](CO)C(=O)NCC(=O)N[C@@H](C)C(=O)N1CCC[C@H]1C(=O)N1CCC[C@H]1C(=O)N1CCC[C@H]1C(=O)N[C@@H](CO)C(N)=O)C(C)C [Compound 32] (H-Y[dA]EGTFTSDYSIALEKK([AEEA-AEEA-γGlu-C20 diacid])AQRAFVEWLLAQGPSSGAPPPS-NH2)	0.016 nM	17.4 h	100%	8 h	11.8 h	0.04 nM	0.056 nM	0.018 nM
